Experimental data from patent publication US20260033491A1, “FUNGAL SPORE FORMULATIONS INCLUDING CARRIER FLUIDS” (priority 2018, published 2026).

How the values were obtained:
[1] = system: Beauveria bassiana spores; experiment: Spore viability (germination rate) of Beauveria bassiana spores dispersed in fluid and stored at 30° C.; format: cell-based; conditions: Beauveria bassiana spores in fluid; for spore viability [%] after 2 w (14 d) / spore viability [%] after 5 w (35 d): storage at 30° C.
Experimental: (§1) 1.5 g of Beauveria bassiana pure spore powder were transferred into a formulation vessel (IKA Type DT-20 mixing vessel with dispersion tool for Ultra Turrax) using a sterile spoon. 13.5 mL of fluid were added into the respective formulation vessel and dispersed using ultra turrax tube drive control for 1 min at 3000 rpm; change direction after 30 sec. After this 2.8 mL were transferred in four sample bottles (Wheaton Serum vial, Type I) leaving little headspace and closed tight using crimpneck caps (Macherey—Nagel type N 13) Afterwards all sample bottles were transferred to an incubator set at 30° C. and stored for a given time.
(§2) In regular intervals a sample was retrieved from the storage location and analyzed for spore viability. Therefore the original samples were thoroughly homogenized. Aliquots of 0.25 g or 250 μL of each sample are transferred into 50 mL falcon tubes. The tubes were filled up to 25 g using a sterile aqueous solution containing 2% Tween 80 and homogenized by vortexing to achieve the first dilution step (1:100 dilution). This dilution was used for further dilution and spotting on agar.
For these samples, an alternative dispersion/dilution method was applied where the oil phase is stripped from the spores first: 0.25 g or 250 μL of sample are weighted into a 2 mL Eppendorf tube, and 0.5 mL of 2% Tween 80 is added, and the mixture is transferred into an Eppendorf centrifuge where it is centrifuged for 1 min at 10.000 rpm. The supernatant (=upper oily phase) is discarded by using a pipette. […] 250 μL or 0.25 g of each sample are transferred into a sterile 50 mL Falcon tube. The tubes were filled up to 25 g using a sterile aqueous solution containing 2% Tween 80 and homogenized by vortexing to achieve the first dilution step (1:100 dilution). This dilution is used for further dilution and spotting on agar.
(§3) For evaluation of spore germination rate prepare a 1:15000 dilution based on the 1:100 dilution achieved by multiple automated dilution (pipetting robot, 96 well plate). Afterwards 12×12 cm agar plates are taken and spotted with 10 times 5 μL of each sample using an automated 12-Channel pipet. Wait until liquid is soaked up by agar and transfer agar plate to an incubator and incubate at 20° C. for 17 hours. Open the plate and place it under the microscope. Randomly chose one area per spot and record the number of germinated and non-germinated spores that are within the designated field. At least 200 spores per sample need to be evaluated. If needed count more than one field per spot.

[2] = system: Penicillium bilaii spores; experiment: Spore viability (germination rate) of Penicillium bilaii spores dispersed in fluid and stored at 30° C.; format: cell-based; conditions: Penicillium bilaii spores in fluid; for spore viability [%] 6 w@30° C. (41-43 d) / spore viability [%] 3 m@30° C. (83-85 d): storage at 30° C.
Experimental: as §1, with “Penicillium bilaii” for “Beauveria bassiana”
as §2
Not all samples mixed well or mixed at all in 2% Tween 80. For these samples, an alternative dispersion/dilution method was applied where the oil phase is stripped from the spores first: 0.25 g or 250 μL of sample are weighted into a 2 mL Eppendorf tube, and 0.5 mL of 2% Tween 80 is added, and the mixture is transferred into an Eppendorf centrifuge where it is centrifuged for 1 min at 10.000 rpm. The supernatant (=upper oily phase) is discarded by using a pipette. Afterwards 250 μL of Breakthru S 240 are added and the spores are well dispersed. 250 μL or 0.25 g of each sample are transferred into a sterile 50 mL Falcon tube. The tubes were filled up to 25 g using a sterile aqueous solution containing 2% Tween 80 and homogenized by vortexing to achieve the first dilution step (1:100 dilution). This dilution is used for further dilution and spotting on agar.
as §3

CCCCOC(=O)CCCCC(=O)OCCCC [Adimoll DB, di-n-Butyl adipate]
spore viability [%] at day 1 [1]: 87% | spore viability [%] after 2 w (14 d) [1]: 66.1% | spore viability [%] after 5 w (35 d) [1]: 37.7% | spore viability [%] initial (1-2 d) [2]: 97.5% | spore viability [%] 6 w@30° C. (41-43 d) [2]: 90.8% | spore viability [%] 3 m@30° C. (83-85 d) [2]: 75.5%

CC(=O)OCC(COC(C)=O)OC(C)=O [Triacetin, Glycerin triacetate]
spore viability [%] at day 1 [1]: 89.3% | spore viability [%] after 2 w (14 d) [1]: 58.6% | spore viability [%] after 5 w (35 d) [1]: 31.6% | spore viability [%] initial (1-2 d) [2]: 92.9% | spore viability [%] 6 w@30° C. (41-43 d) [2]: 83.2% | spore viability [%] 3 m@30° C. (83-85 d) [2]: 57.6%
